# Experimental data reported in article PMC6021032, “Antimycobacterial activity of nitrogen heterocycles derivatives: 7-(pyridine-4-yl)-indolizine derivatives. Part VII^8–12” (Journal of Enzyme Inhibition and Medicinal Chemistry, 2017).
# Experiments:
# [1] = In vitro microsomal stability assay; details: human, 1 μM, 37 °C
# From the text: The stability of compound is expressed as a function of time[41]^,[42]
# 3.4. In vitro Microsomal Stability Assay
# compound to detect NADPH-free degradation. Verapamil and dextromethorphan were
# included as control compounds.
# [2] = test system: Mycobacterium tuberculosis H37Rv; experiment: Primary screen (Cycle 1): MIC, IC50, IC90 under aerobic conditions; assay type: cell-based
# Mtb = test system: Mtb; set-up: method as in PMID 24268596; details: reported anti-TB activity of compound 1; cited from earlier work
# M. tuberculosis H37Rv = experiment: Cycle 2 repeat of MIC, IC50, IC90 under aerobic conditions (lower starting concentrations); assay type: cell-based, Mycobacterium tuberculosis; details: Mycobacterium tuberculosis, revaluation; for IC50 / IC90: aerobic; for MIC: repeated at lower starting concentrations, read-out: MIC aerobic condition
# Mtb H37Rv = experiment: LORA parallel plates, oxygen-deprived bacteria incubated under aerobic conditions (normal oxygen); assay type: cell-based, Mycobacterium tuberculosis; details: Mycobacterium tuberculosis, H37RV; for MIC: 120 h, oxygen-deprived bacteria, aerobic 5 d
# Mycobacterium abscessus = experiment: MIC, IC50, IC90 against nontuberculous mycobacteria (OD590); assay type: cell-based; details: Mycobacteroides abscessus, M. abscessus; for MIC: read-out: MIC
# [3] = test system: THP-1 cell line infected with Mtb; experiment: Intracellular activity assay, luminescence; assay type: cell-based, Mycobacterium tuberculosis; details: Mycobacterium tuberculosis, Mtb-infected THP-1 cells, 72 h; for IC50: read-out: IC50 intracell; for IC90: read-out: IC90 intracell
# Experimental: Since the overall efficacy of any anti TB drug will be improved by its ability to traffic into the macrophage phagosome containing replicating bacteria, we evaluated the intracellular activity of compounds[24]. This was measured by using THP-1 cell line infected with Mtb. Infected cells were exposed to compounds for 72 h and viable bacterial counts were measured using luminescence as a measure of intracellular growth.
# Assay (Promega) which uses ATP as an indicator of cell viability. Relative luminescent units (RLU) were measured using a Biotek Synergy 4 plate reader. The dose response curve was fitted using the Levenberg–Marquardt algorithm. The IC50 was defined as the compound […]
# Intracellular Activity Assay
# The activity of compounds against intracellular bacteria was determined by measuring viability in infected THP-1 cell after 3 days in the presence of test compounds. Compounds were prepared as 10-point three-fold serial dilutions in DMSO. The highest concentration of […]
# THP-1 cells were cultured in complete RPMI and differentiated into macrophage-like cells using 80 nM PMA overnight at 37°C, 5% CO2. THP-1 cells were infected with a luminescent strain of H37Rv (which constitutively expresses luxABCDE) at a multiplicity of infection of 1 and incubated overnight at 37°C, 5% CO2. Infected cells were recovered using Accutase/EDTA solution, washed twice with PBS to remove extracellular bacteria and seeded into assay pates. Compound dilutions were added to a final DMSO concentration of 0.5%.
# Assay plates were incubated for 72 h at 37°C, 5% CO2. Each run included isoniazid as a control. Relative luminescent units (RLU) were measured using a Biotek Synergy 2 plate reader. The dose response curve was fitted using the Levenberg–Marquardt algorithm. The […]
# inhibition of growth respectively.
# 3. Cycle 3 – Absorption, distribution, metabolism, excretion and toxicity (ADMET)
# 3.1. Plasma Protein Binding Assay
# Compounds were added to human plasma at a fixed concentration of 5 µM. The mixture was dialyzed in a RED device (Rapid Equilibrium Dialysis, Pierce) against PBS and incubated on an orbital shaker for 4 h at 37 °C. Aliquots from plasma and PBS sides were collected; an equal volume of PBS was added to the plasma sample, and an equal volume of plasma was added to the PBS sample. Three volumes of methanol (containing the internal binding standard propranolol) was added to precipitate the proteins and release the compound.
# Each compound was tested in duplicate. Samples were centrifuged, the supernatant was […]
# [4] = Cytotoxicity, THP-1 cell viability (CellTiter-Glo); details: human
# Mycobacterium avium = experiment: MIC against nontuberculous mycobacteria (Alamar blue); assay type: cell-based; details: M. avium
# in vitro = details: human
# Caco-2-cell monolayer = experiment: Caco-2 permeability assay
# Experimental: The Caco-2 cell layer permeability assay is widely used as a more predictive in vitro model of absorption through the intestinal epithelium. […] For B–A permeability, test compound was added to the basal side of the Caco-2 monolayer and the transport of the compound to the apical side monitored. The amount of compound present in each compartment was quantified by LC-MS/MS.
# recovered and analyzed by LC-MS/MS.
# 3.2. Caco-2 Permeability Assay
# feeding at 2-day intervals.
# Each experiment included the
# contained transport buffer at pH 7.4.
# 3.3. Cytochrome P450 Inhibition Assay
# and was < 0.2%. Samples were run in duplicate. Compounds were incubated with human liver
# [5] = Plasma protein binding by equilibrium dialysis; details: Human plasma protein binding assay
# [6] = human
# [7] = test system: human liver cells (HepG2); experiment: HepG2 cytotoxicity (CellTiter-Glo); assay type: cell-based; details: read-out: IC50 (50% loss of viability), 72 h
# [8] = Mycobacterium tuberculosis, M. tuberculosis H37Rv, aerobic conditions, primary screen
# [9] = MIC value taken from the first MIC assay
# [10] = M. tuberculosis H37Rv, aerobic conditions, primary screen
molecule,measurement,setting,value
"COc1ccc2c(c1)[C@]13CCCC[C@@H]1[C@H](C2)N(C)CC3 [Dextromethorphan, reference compound]",microsomal CLint at 1 μM,"[1]; s9, NADPH-dependent CLint",24.3 µL/min/mg
same,half-life at 1 μM,"[1]; s9, NADPH-dependent T1/2, Human",1.58 h
same,microsomal CLint at 1 μM,"[1]; s9, NADPH-free CLint",< 12.8 µL/min/mg
same,half-life at 1 μM,"[1]; s9, NADPH-free T1/2, Human",> 3 h
CCOC(=O)c1cc(C(=O)c2ccc(C)cc2)n2ccc(-c3cc[n+](CC(=O)c4ccc([N+](=O)[O-])cc4)cc3)cc12 [Compound 6k],IC50,[2]; [8],200 µM
same,IC90,[2]; [8],> 200 µM
same,MIC,[2]; [8],> 200 µM
"CCOC(=O)c1cc(C(=O)c2ccc(Cl)cc2)n2ccc(-c3cc[n+](CC(=O)c4ccc(F)cc4)cc3)cc12 [Compound 6e, 4-(3-(4-Chlorobenzoyl)-1-(ethoxycarbonyl)indolizine-7-yl)-1-(2-(4-fluorophenyl)-2-oxoethyl)pyridin-1-ium bromide]",IC50,[2]; [8],> 100 µM
same,IC90,[2]; [8],> 100 µM
same,MIC,[2]; [8],> 100 µM
CCOC(=O)c1cc(C(=O)c2ccccc2)n2ccc(-c3cc[n+](CC(=O)c4ccc(OC)cc4)cc3)cc12 [Compound 1],IC90,Mtb,13.1 µM
same,MIC,Mtb,3.91 µM
"CCOC(=O)c1cc(C(=O)c2ccccc2)n2ccc(-c3cc[n+](CC(=O)c4ccc(C)cc4)cc3)cc12.[Br-] [Compound 6a, 4-(3-Benzoyl-1-(ethoxycarbonyl)indolizine-7-yl)-1-(2-oxo-2-(p-tolyl)ethyl)pyridin-1-ium bromide]",IC50,M. tuberculosis H37Rv,12 µM
same,IC90,M. tuberculosis H37Rv,23 µM
same,MIC,M. tuberculosis H37Rv,22 µM
same,IC50,Mtb H37Rv,9.2 µM
same,IC90,Mtb H37Rv,42 µM
same,MIC,Mtb H37Rv,100 µM
same,IC50,Mycobacterium abscessus,24 µM
same,IC90,Mycobacterium abscessus,37 µM
same,MIC,Mycobacterium abscessus,> 200 µM
same,IC50,[3],5.2 µM
same,IC90,[3],15 µM
same,IC50 at 3 days,[4],2.9 µM
same,MIC,[2]; [9],14 µM
same,IC50,[2]; [8],13 µM
same,IC90,[2]; [8],15 µM
same,MIC,[2]; [8],14 µM
same,MIC,Mycobacterium avium,50 µM
same,MIC,Mycobacterium avium; Mycobacterium avium,50 µM
CCOC(=O)c1cc(C(=O)c2ccc(OC)cc2)n2ccc(-c3cc[n+](CC(=O)c4ccc(Br)cc4)cc3)cc12 [Compound 6l],IC50,[2]; [8],> 200 µM
same,IC90,[2]; [8],> 200 µM
same,MIC,[2]; [8],> 200 µM
"CCOC(=O)c1cc(C(=O)c2ccc(Cl)cc2)n2ccc(-c3cc[n+](CC(=O)c4cccc(OC)c4)cc3)cc12 [Compound 6d, 4-(3-(4-Chlorobenzoyl)-1-(ethoxycarbonyl)indolizine-7-yl)-1-(2-(3-methoxyphenyl)-2-oxoethyl)pyridin-1-ium]",IC50,M. tuberculosis H37Rv,12 µM
same,IC90,M. tuberculosis H37Rv,17 µM
same,MIC,M. tuberculosis H37Rv,14 µM
same,IC50,Mtb H37Rv,17 µM
same,IC90,Mtb H37Rv,27 µM
same,MIC,Mtb H37Rv,43 µM
same,IC50,Mycobacterium abscessus,81 µM
same,IC90,Mycobacterium abscessus,150 µM
same,MIC,Mycobacterium abscessus,> 200 µM
same,IC50,[3],11 µM
same,IC90,[3],> 50 µM
same,MIC,[2]; [9],15 µM
same,IC50,[2]; [8],14 µM
same,IC90,[2]; [8],16 µM
same,MIC,[2]; [8],15 µM
same,melting point,,252 to 254 °C
same,MIC,Mycobacterium avium; Mycobacterium avium,200 µM
same,IC50 at 3 days,in vitro,3.9 µM
"CCOC(=O)c1cc(C(=O)c2ccc(Br)cc2)n2ccc(-c3cc[n+](CC(=O)c4cccc(OC)c4)cc3)cc12 [Compound 6h, 4-(3-(4-Bromobenzoyl)-1-(ethoxycarbonyl)indolizine-7-yl)-1-(2-(3-methoxyphenyl)-2-oxoethyl)pyridin-1-ium]",IC50,M. tuberculosis H37Rv,15 µM
same,IC90,M. tuberculosis H37Rv,26 µM
same,MIC,M. tuberculosis H37Rv,27 µM
same,IC50,Mtb H37Rv,16 µM
same,IC90,Mtb H37Rv,24 µM
same,MIC,Mtb H37Rv,38 µM
same,IC50,Mycobacterium abscessus,> 200 µM
same,IC90,Mycobacterium abscessus,> 200 µM
same,MIC,Mycobacterium abscessus,> 200 µM
same,IC50,[3],13 µM
same,IC90,[3],43 µM
same,MIC,[2]; [9],14 µM
same,IC50,[2]; [8],13 µM
same,IC90,[2]; [8],14 µM
same,MIC,[2]; [8],14 µM
same,melting point,,256 to 259 °C
same,MIC,Mycobacterium avium; Mycobacterium avium,200 µM
same,IC50 at 3 days,in vitro,3.8 µM
"CCOC(=O)c1cc(C(=O)c2ccc(Br)cc2)n2ccc(-c3cc[n+](CC(=O)c4ccc(C)cc4)cc3)cc12.[Br-] [Compound 6f, 4-(3-(4-Bromobenzoyl)-1-(ethoxycarbonyl)indolizine-7-yl)-1-(2-oxo-2-(p-tolyl)ethyl)pyridin-1-ium bromide]",IC50,[2]; [8],13 µM
same,IC90,[2]; [8],19 µM
same,MIC,[2]; [8],20 µM
same,melting point,,283 to 284 °C
"NNC(=O)c1ccncc1 [Isoniazid, reference compound]",IC50,[3],0.18 µM
same,IC90,[3],0.27 µM
"CO[C@H]1/C=C/O[C@@]2(C)Oc3c(C)c(O)c4c(O)c(c(/C=N/N5CCN(C)CC5)c(O)c4c3C2=O)NC(=O)/C(C)=C\C=C\[C@H](C)[C@H](O)[C@@H](C)[C@@H](O)[C@@H](C)[C@H](OC(C)=O)[C@@H]1C [Rifampicin, reference compound]",IC50,M. tuberculosis H37Rv,0.0043 µM
same,IC90,M. tuberculosis H37Rv,0.0092 µM
same,MIC,M. tuberculosis H37Rv,0.0071 µM
same,IC50,Mtb H37Rv,0.0057 µM
same,IC90,Mtb H37Rv,0.011 µM
same,MIC,Mtb H37Rv,0.021 µM
same,IC50,Mycobacterium abscessus,2.3 µM
same,IC90,Mycobacterium abscessus,3.6 µM
same,MIC,Mycobacterium abscessus,3.6 µM
same,IC50,[2]; [8],0.0036 µM
same,IC90,[2]; [8],0.0071 µM
same,MIC,[2]; [8],0.0065 µM
same,MIC,Mycobacterium avium; Mycobacterium avium,0.098 µM
"CCOC(=O)c1cc(C(=O)c2ccccc2)n2ccc(-c3cc[n+](CC(=O)c4cccc(OC)c4)cc3)cc12 [Compound 6b, 4-(3-Benzoyl-1-(ethoxycarbonyl)indolizine-7-yl)-1-(2-(3-methoxyphenyl)-2-oxoethyl)pyridin-1-ium]",IC50,[2]; [8],39 µM
same,IC90,[2]; [8],> 50 µM
same,MIC,[2]; [8],> 50 µM
same,melting point,,255 to 256 °C
CC(C)NC[C@H](O)COc1cccc2ccccc12 (racemic) [Propanolol],Mean A→B Papp,"Caco-2-cell monolayer; Caco-2, apical to basolateral",12.7 10^−6cm/s
same,Mean B→A Papp,"Caco-2-cell monolayer; Caco-2, basolateral to apical",25 10^−6cm/s
same,efflux ratio,Caco-2-cell monolayer; Re = Papp (B→A)/Papp (A→B),2
same,Recovery,[5],93
same,Mean plasma fraction bound,[6],79.3%
same,Mean plasma fraction unbound,[6],20.7%
4-[3-(4-Bromophenyl)-1-(ethoxycarbonyl)indolizine-7-yl)-1-(2-(4-methoxyphenyl)-2-oxoethyl)pyridine-1-ium bromide [Compound 6g],IC50,[2]; [10],35 µM
same,IC90,[2]; [10],46 µM
same,MIC,[2]; [10],50 µM
CCOC(=O)c1cc(C(=O)c2ccc(Br)cc2)n2ccc(-c3cc[n+](CC(=O)c4ccc(Cl)cc4)cc3)cc12 [Compound 6j],IC50,[2]; [8],> 200 µM
same,IC90,[2]; [8],> 200 µM
same,MIC,[2]; [8],> 200 µM
"CN[C@@H]1C[C@H]2O[C@@](C)([C@@H]1OC)n1c3ccccc3c3c4c(c5c6ccccc6n2c5c31)C(=O)NC4 [Staurosporine, reference compound]",IC50,[7],0.0086 µM
"Cc1ncc([N+](=O)[O-])n1CCO [Metronidazole, reference compound]",IC50,Mtb H37Rv,> 200 µM
same,IC90,Mtb H37Rv,> 200 µM
same,MIC,Mtb H37Rv,> 200 µM
